# Measured values reported in US20050239656A1, “Pyridine compounds or salts thereof and herbicides containing the same” (priority 2002, published 2005).
# Tested on: corn
# Experiment: Test Example 2: soil surface treatment, upland pot test
# Format: in vivo, Zea mays L.
# Settings: active ingredient 500 g/ha, observed day 21, 0 = non-treated, 100 = complete kill
# Source text: (§1) Upland field soil was put into a 1/170,000 ha pot, and seed of various plants (barnyardgrass, crabgrass, green foxtail, redroot pigweed, prickly sida, velvetleaf, rice, wheat, corn, soybean) were sown. On the 1st day after the sowing, a wettable powder or emulsifiable concentrate having the compound of the present invention formulated in accordance with a usual formulation method, was weighed so that the active ingredient would be a predetermined amount, and diluted with water in an amount of 1,500 L/ha. The herbicide thus adjusted was applied by a small size sprayer for soil surface treatment. On the 20th to 28th days after the application of the herbicide, the growth of the respective plants was visually observed, and the herbicidal effects were evaluated by the growth controlling degrees (%) ranging from 0 (equivalent to the non-treated plot) to 100 (complete kill), whereby the results shown in Table 4, were obtained.
row,Structure (SMILES),Growth controlling degree (%) Corn [%]
1,CCN(C(=O)COc1ccccc1)C(c1cnccc1C(F)(F)F)C(C)C (centres unmarked) [I-259],30
2,CCc1ccc(OCC(=O)N(C)C(c2cnccc2C(F)(F)F)C(C)C)cc1 (centres unmarked) [I-249],20
3,CC(C)C(c1cnccc1C(F)(F)F)N(C)C(=O)COc1cccc(C(F)(F)F)c1 (centres unmarked) [I-254],10

# Tested on: prickly sida
# Experiment: as above
# Format: in vivo, Sida spinosa L.
# Settings: active ingredient 500 g/ha, observed day 21, 0 = non-treated, 100 = complete kill
# Source text: as §1
row,Structure (SMILES),Growth controlling degree (%) Prickly sida [%]
1,CCN(C(=O)COc1ccccc1)C(c1cnccc1C(F)(F)F)C(C)C (centres unmarked) [I-259],40
2,CCc1ccc(OCC(=O)N(C)C(c2cnccc2C(F)(F)F)C(C)C)cc1 (centres unmarked) [I-249],80
3,CC(C)C(c1cnccc1C(F)(F)F)N(C)C(=O)COc1cccc(C(F)(F)F)c1 (centres unmarked) [I-254],90

# Tested on: soybean
# Experiment: as above
# Format: in vivo, Glycine max Merr.
# Settings: active ingredient 500 g/ha, observed day 21, 0 = non-treated, 100 = complete kill
# Source text: as §1
row,Structure (SMILES),Growth controlling degree (%) Soyabean [%]
1,CCN(C(=O)COc1ccccc1)C(c1cnccc1C(F)(F)F)C(C)C (centres unmarked) [I-259],0
2,CCc1ccc(OCC(=O)N(C)C(c2cnccc2C(F)(F)F)C(C)C)cc1 (centres unmarked) [I-249],20
3,CC(C)C(c1cnccc1C(F)(F)F)N(C)C(=O)COc1cccc(C(F)(F)F)c1 (centres unmarked) [I-254],10

# Tested on: crabgrass
# Experiment: as above
# Format: in vivo, Digitaria sanguinalis L.
# Settings: active ingredient 500 g/ha, observed day 21, 0 = non-treated, 100 = complete kill
# Source text: as §1
row,Structure (SMILES),Growth controlling degree (%) Crabgrass [%]
1,CCN(C(=O)COc1ccccc1)C(c1cnccc1C(F)(F)F)C(C)C (centres unmarked) [I-259],75
2,CCc1ccc(OCC(=O)N(C)C(c2cnccc2C(F)(F)F)C(C)C)cc1 (centres unmarked) [I-249],98
3,CC(C)C(c1cnccc1C(F)(F)F)N(C)C(=O)COc1cccc(C(F)(F)F)c1 (centres unmarked) [I-254],98

# Tested on: japanese bulrush
# Experiment: Test Example 3: paddy pot test, application under submerged conditions
# Format: in vivo, Scirpus juncoides
# Settings: active ingredient 250 g/ha; submerged application at 0.5 leaf stage; visually observed 14 days after application; 0 = non-treated, 100 = complete kill
# Outline: (§2)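 Paddy soil pots; seeds sown, lightly covered; flooded 0.5–1 cm in greenhouse; wapato tubers planted day 1–2; flood raised to 3–4 cm. Submerged pipette application at 0.5 leaf / primary leaf stage. Visual score day 14, 0–100%.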
row,Structure (SMILES),Growth controlling degree (%) Japanese bulrush [%]
1,CCN(C(=O)COc1ccccc1)C(c1cnccc1C(F)(F)F)C(C)C (centres unmarked) [I-259],70
2,CCc1ccc(OCC(=O)N(C)C(c2cnccc2C(F)(F)F)C(C)C)cc1 (centres unmarked) [I-249],98
3,CC(C)C(c1cnccc1C(F)(F)F)N(C)C(=O)COc1cccc(C(F)(F)F)c1 (centres unmarked) [I-254],98

# Tested on: japanese ribbon wapato
# Experiment: as above
# Format: in vivo, Sagittaria pygniaea
# Settings: active ingredient 250 g/ha; submerged application at primary leaf stage; visually observed 14 days after application; 0 = non-treated, 100 = complete kill
# Outline: as §2
row,Structure (SMILES),Growth controlling degree (%) Japanese ribbon wapato [%]
1,CCN(C(=O)COc1ccccc1)C(c1cnccc1C(F)(F)F)C(C)C (centres unmarked) [I-259],90
2,CCc1ccc(OCC(=O)N(C)C(c2cnccc2C(F)(F)F)C(C)C)cc1 (centres unmarked) [I-249],0

# Tested on: barnyardgrass
# Experiment: Test Example 2: soil surface treatment, upland pot test
# Format: in vivo, Echinochloa crus-galli L.
# Settings: active ingredient 500 g/ha, observed day 21, 0 = non-treated, 100 = complete kill
# Source text: as §1
row,Structure (SMILES),Growth controlling degree (%) Barnyardgrass [%]
1,CCN(C(=O)COc1ccccc1)C(c1cnccc1C(F)(F)F)C(C)C (centres unmarked) [I-259],70
2,CCc1ccc(OCC(=O)N(C)C(c2cnccc2C(F)(F)F)C(C)C)cc1 (centres unmarked) [I-249],95
3,CC(C)C(c1cnccc1C(F)(F)F)N(C)C(=O)COc1cccc(C(F)(F)F)c1 (centres unmarked) [I-254],90

# Tested on: redroot pigweed
# Experiment: as above
# Format: in vivo, Amaranthus retroflexus L.
# Settings: active ingredient 500 g/ha, observed day 21, 0 = non-treated, 100 = complete kill
# Source text: as §1
row,Structure (SMILES),Growth controlling degree (%) Redroot pigweed [%]
1,CCN(C(=O)COc1ccccc1)C(c1cnccc1C(F)(F)F)C(C)C (centres unmarked) [I-259],50
2,CCc1ccc(OCC(=O)N(C)C(c2cnccc2C(F)(F)F)C(C)C)cc1 (centres unmarked) [I-249],60
3,CC(C)C(c1cnccc1C(F)(F)F)N(C)C(=O)COc1cccc(C(F)(F)F)c1 (centres unmarked) [I-254],50

# Tested on: rice (var. Nihonbare)
# Experiment: Test Example 3: paddy pot test, transplanted rice
# Format: in vivo, Oryza sativa L.
# Settings: active ingredient 250 g/ha, applied 4th day after transplantation, visually observed 21st day after application, 0 = non-treated, 100 = complete kill
# Outline: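 Visual crop-injury rating (0 = as untreated, 100 = complete kill, %) taken 21 days post-application. Treatment: formulated compound, water-diluted, pipetted into 3–4 cm flood water at a preset active-ingredient dose, 4 days after transplanting 2-leaf Nihonbare rice 3 cm deep in puddled paddy soil.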
row,Structure (SMILES),Growth controlling degree (%) Rice [%]
1,CCN(C(=O)COc1ccccc1)C(c1cnccc1C(F)(F)F)C(C)C (centres unmarked) [I-259],40
2,CCc1ccc(OCC(=O)N(C)C(c2cnccc2C(F)(F)F)C(C)C)cc1 (centres unmarked) [I-249],0
3,CC(C)C(c1cnccc1C(F)(F)F)N(C)C(=O)COc1cccc(C(F)(F)F)c1 (centres unmarked) [I-254],0

# Tested on: velvetleaf
# Experiment: Test Example 2: soil surface treatment, upland pot test
# Format: in vivo, Abutilon theophrasti MEDIC.
# Settings: active ingredient 500 g/ha, observed day 21, 0 = non-treated, 100 = complete kill
# Source text: as §1
row,Structure (SMILES),Growth controlling degree (%) Velvetleaf [%]
1,CCN(C(=O)COc1ccccc1)C(c1cnccc1C(F)(F)F)C(C)C (centres unmarked) [I-259],10
2,CCc1ccc(OCC(=O)N(C)C(c2cnccc2C(F)(F)F)C(C)C)cc1 (centres unmarked) [I-249],50
3,CC(C)C(c1cnccc1C(F)(F)F)N(C)C(=O)COc1cccc(C(F)(F)F)c1 (centres unmarked) [I-254],70

# Tested on: green foxtail
# Experiment: as above
# Format: in vivo, Setaria viridis L.
# Settings: active ingredient 500 g/ha, observed day 21, 0 = non-treated, 100 = complete kill
# Source text: as §1
row,Structure (SMILES),Growth controlling degree (%) Green foxtail [%]
1,CCN(C(=O)COc1ccccc1)C(c1cnccc1C(F)(F)F)C(C)C (centres unmarked) [I-259],98
2,CCc1ccc(OCC(=O)N(C)C(c2cnccc2C(F)(F)F)C(C)C)cc1 (centres unmarked) [I-249],98
3,CC(C)C(c1cnccc1C(F)(F)F)N(C)C(=O)COc1cccc(C(F)(F)F)c1 (centres unmarked) [I-254],100

# Tested on: barnyardgrass
# Experiment: Test Example 3: paddy pot test, application under submerged conditions
# Format: in vivo, Echinochloa crus-galli L.
# Settings: active ingredient 250 g/ha; submerged application at 0.5 leaf stage; visually observed 14 days after application; 0 = non-treated, 100 = complete kill
# Outline: as §2
row,Structure (SMILES),Growth controlling degree (%) Barnyardgrass [%]
1,CCN(C(=O)COc1ccccc1)C(c1cnccc1C(F)(F)F)C(C)C (centres unmarked) [I-259],98
2,CCc1ccc(OCC(=O)N(C)C(c2cnccc2C(F)(F)F)C(C)C)cc1 (centres unmarked) [I-249],98
3,CC(C)C(c1cnccc1C(F)(F)F)N(C)C(=O)COc1cccc(C(F)(F)F)c1 (centres unmarked) [I-254],100

# Tested on: rice
# Experiment: Test Example 2: soil surface treatment, upland pot test
# Format: in vivo, Oryza sativa L.
# Settings: active ingredient 500 g/ha, observed day 21, 0 = non-treated, 100 = complete kill
# Source text: as §1
row,Structure (SMILES),Growth controlling degree (%) Rice [%]
1,CCN(C(=O)COc1ccccc1)C(c1cnccc1C(F)(F)F)C(C)C (centres unmarked) [I-259],10
2,CCc1ccc(OCC(=O)N(C)C(c2cnccc2C(F)(F)F)C(C)C)cc1 (centres unmarked) [I-249],20
3,CC(C)C(c1cnccc1C(F)(F)F)N(C)C(=O)COc1cccc(C(F)(F)F)c1 (centres unmarked) [I-254],10
